Assay results published in patent publication US5556847A, “Methods of effecting memory enhancement mediated by steroid sulfatase inhibitors” (Duquesne University of the Holy Ghost, priority 1994, dated 1996).
Structures can show the parent of a compound that is named as a salt.

What was measured:
[1] = system: scopolamine-induced amnesia; experiment: passive avoidance paradigm, reversal of scopolamine-induced amnesia (crossover latency); type: in vivo, rats
Description: Male rats weighing between 80 and 100 grams were purchased from Hilltop Lab Animals Inc. (Scottdale, Pa.) and housed in hanging wire mesh cages in groups of three with water and rat chow available ad libitum. The room in which the animals were housed was controlled for both temperature and humidity, there was a standard 12 hour, light/dark cycle. To assess memory, the Gemini Avoidance System (San Diego Instruments) was utilized in a standard passive avoidance paradigm. Briefly, the avoidance apparatus consisted of a box (53×53×32 cm) with two compartments connected by an opening with a sliding door. The room in which the rat was placed was brightly lit, while the other room was dark. Initially, the animals were allowed to explore the apparatus and were then removed. During the memory acquisition trial, animals were placed in the light compartment. When an animal entered the dark compartment, the sliding door closed and a mild foot shock (1mA; 1 sec.) was delivered. The rat was then removed from the apparatus and returned to its cage. Twenty-four hours later the rat was again placed in the light side of the apparatus and the time latency to crossing to the dark room recorded. […] The acquisition of memory for the foot shock was assessed as an increased latency period before entering the dark room on the second day. Significant differences in crossover latency were determined by statistical analysis utilizing one-way analysis of a variance with a Dunnett's test post hoc. Significant differences between groups were interpreted as differences in memory acquisition resulting from the various treatments.
To determine the effect of DHEAS on memory, one hour before the acquisition trial […] of ten animals were injected intraperitoneally (IP) with one of the following several doses of DHEAS (5, 10, 20, 30, 50, 70 mg/Kg/ml dissolved saline) or saline. All animals in a given group were administered the same dosage. […] Twenty-four hours later the rats were again placed in the apparatus and the time delay before the animals entered the dark compartment was recorded.
Twenty-four hours later, crossover latency (the time delay before the rats crossed to the dark compartment) for the groups was determined.
(§1) In order to determine whether EMATE alone could enhance memory, four groups of rats (10 animals per group), were injected with EMATE (10 mg/Kg; IP), either four hours before the acquisition trial, or dally for 3, 10 or 15 days before the acquisition trial. Twenty-four hours following the acquisition trial crossover latency was determined. The dally dosage of EMATE was 10 mg/kg which inhibited the sulfatase enzyme for about three to four days.

[2] = system: steroid sulfatase; experiment: inhibition of steroid sulfatase after dosing; type: in vivo
Description: as §1
Sulfatase inhibitor EMATE can effect the memory enhancement of peripherally administered DHEAS, a neurosteroid, by inhibiting the metabolism of DHEAS to DHEA. […] A single dose (10 mg/kg) can inhibit greater than 98% of sulfatase after 24 hours. After 10 days of treatment the sulfatase activity in the whole body (including liver, adrenal gland, ovary, uterus and brain) is inhibited. The administration of EMATE alone can alter the equilibrium between the endogenous sulfated and unsulfated forms of neurosteroids in such a way as to enhance memory.

Row | SMILES | crossover latency (maximum effect) ([1]; DHEAS 20 mg/Kg IP one hour before acquisition trial, scopolamine 1 mg/Kg IP, latency 24 hours later) [s] | reversal of scopolamine-induced amnesia ([1]; DHEAS 5-70 mg/Kg IP one hour before acquisition trial, scopolamine 1 mg/Kg IP 30 minutes before, bell shaped dose response curve) | sulfatase activity in the whole body (including liver, adrenal gland, ovary, uterus and brain) ([2]; after 10 days of treatment) | duration of inhibition of the sulfatase enzyme ([2]; dosage 10 mg/kg) | kind of steroid sulfatase inhibition ([2]; in vivo) | inhibition of sulfatase ([2]; single dose 10 mg/kg, after 24 hours) | reversal of scopolamine-induced amnesia ([1]; EMATE alone 10 mg/Kg IP daily for 10 and 15 days before acquisition trial) | crossover latency ([1]; EMATE alone 10 mg/Kg IP daily for 10 days before acquisition trial) [s] | crossover latency ([1]; EMATE alone 10 mg/Kg IP daily for 15 days before acquisition trial) [s] | effect on crossover latency ([1]; EMATE alone, single dose 10 mg/Kg IP four hours before acquisition trial)
1 | C[C@]12CC[C@H](OS(=O)(=O)O)CC1=CC[C@@H]1[C@@H]2CC[C@]2(C)C(=O)CC[C@@H]12 [DHEAS, dehydroepiandrosterone sulfate, reference compound] | 299.4 ± 83.5 | significant (p≤0.05), reversal of scopolamine-induced amnesia |  |  |  |  |  |  |  | 
2 | C[C@]12CC[C@@H]3c4ccc(OS(N)(=O)=O)cc4CC[C@H]3[C@@H]1CCC2=O [EMATE, estrone - 3-sulfamate] |  |  | inhibited | about three to four | potent irreversible inhibitor | greater than 98% | significant (p≤0.05) reversal of scopolamine-induced amnesia | 263.1 ± 69.7 | 297.0 ± 88.7 | failed to increase crossover latency
